Assay: physchem
Conditions: organic solvent or mixture, thermodynamic from solid
Protocol: Weighed samples of material were treated with aliquots of specified solvents at ambient temperature. Samples were typically sonicated between additions to facilitate dissolution. Complete dissolution was observed through visual inspection. Solubility was calculated based on the total amount of solvent added to achieve complete dissolution and may be greater than the value reported due to incremental solvent addition and the inherent kinetics of dissolution. If dissolution was not observed, values are reported as “less than”. If dissolution was observed upon the first addition of solvent, values are reported as “greater than”.

- solubility: < 1000 µg/mL
Compound: Br.Br.CCC[C@H](N[C@H]1CCc2cc(F)cc(F)c2C1)C(=O)Nc1cn(C(C)(C)CNCC(C)(C)C)cn1 [nirogacestat dihydrobromide, (S)-2-(((S)-6,8-difluoro-1,2,3,4-tetrahydronaphthalen-2-yl)amino)-N-(1-(2-methyl-1-(neopentylamino)propan-2-yl)-1H-imidazol-4-yl)pentanamide]
